The record followed here is patent publication US20250171400A1, “AZA-HETEROCYCLYL CARBOXAMIDE AND RELATED COMPOUNDS AND THEIR USE IN TREATING MEDICAL CONDITIONS” (X-BIOTIX THERAPEUTICS, INC., priority 2021, published 2025).

SMILES strings stand for the structures. In brackets after ≈: the same amount, converted by molar mass. Read-outs that look alike come from different tables or passages of the source.

One assay addresses E. coli LpxC (Escherichia coli (strain K12), UniProt P0A725). Kind of assay: in vitro substrate deacetylation assay for inhibition of LpxC (ADDA analysis). It is filed as biochemical. Particulars: 5 nM E. coli LpxC, 2.5 μM substrate, 1 hour at room temperature. In outline: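 E. coli LpxC (5 nM) was preincubated with compound for 10 min at room temperature in phosphate/sucrose/BSA buffer, pH 7.2. UDP-3-O-(R-3-hydroxymyristoyl)-GlcNAc (final 2.5 μM) was then added for 1 h. Substrate and product were measured by ADDA LC-MS/MS, with 1 μM CHIR-090 defining 100% inhibition and IC50 from a four-parameter fit.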

In the next assay the target is P. aeruginosa LpxC (Pseudomonas aeruginosa (strain ATCC 15692 / DSM 22644 / CIP 104116 / JCM 14847 / LMG 12228 / 1C / PRS 101 / PAO1), UniProt P47205). Description: biochemical. The format is biochemical. As to conditions: 5 nM P. aeruginosa LpxC, 2.5 μM substrate, 1 hour at room temperature. Put shortly:
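In vitro deacetylation of substrate by P. aeruginosa LpxC in 384-well format. Substrate and product were captured on Hypercarb and quantified by negative-mode electrospray triple-quadrupole MS. IC50 was derived from the fraction of substrate converted at each compound concentration, calculated from peak areas.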

Assay [1] has as its system E. coli BW25113 isogenic mutant deficient in acrA mediated efflux. Description: broth microdilution minimum inhibition concentration assay. The format is cell-based. As to conditions: Escherichia coli, BW25113, read-out: E. coli KO MIC. In outline:
(§1)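 CLSI broth microdilution with serial doubling dilutions in cation-adjusted Mueller-Hinton broth; inoculum adjusted to 1×10^6 CFU/mL, incubated 16-20 h at 37° C in air. Knockouts are isogenic clean deletions of acrA (E. coli BW25113) or MexA (PAO1); QC by piperacillin on ATCC reference strains.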
Background: In broth dilution the organism is exposed to a series of concentrations in liquid medium.

Assay [2] relates to P. aeruginosa PAO1 isogenic mutant deficient in MexA mediated efflux. Described as above. The format is cell-based. Particulars: Pseudomonas aeruginosa, PAO1, read-out: P. aeruginosa KO MIC. Put shortly:
as §1

Assay [3] deals with wild-type E. coli BW25113. The assay is described as above. It is filed as cell-based. As to conditions: Escherichia coli; wild-type E. coli BW25113, 37° C. 16-20 h; read-out: E. coli WT MIC. Put shortly:
as §1

Assay [4] has as its system wild-type P. aeruginosa PAO1. The description is as above. It is filed as cell-based. As to conditions: Pseudomonas aeruginosa. In outline:
as §1

Where [5] appears, read: PAO1, read-out: P. aeruginosa WT MIC.

E. coli LpxC, sequence (P0A725 whole entry): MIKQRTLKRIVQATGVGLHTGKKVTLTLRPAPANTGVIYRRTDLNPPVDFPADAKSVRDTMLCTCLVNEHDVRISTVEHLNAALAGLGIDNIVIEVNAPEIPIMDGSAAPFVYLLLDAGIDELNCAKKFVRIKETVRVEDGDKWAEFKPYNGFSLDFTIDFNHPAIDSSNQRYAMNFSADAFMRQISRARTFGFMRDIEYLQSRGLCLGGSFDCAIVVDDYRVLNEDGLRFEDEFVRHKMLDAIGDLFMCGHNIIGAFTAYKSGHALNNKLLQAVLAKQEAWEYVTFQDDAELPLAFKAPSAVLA

On to `O=C(O)CCN1C[C@H](NC(=O)[C@@H]2C[C@H](F)CN2)C[C@@H]1C(=O)NCc1ccc(C#CC#CC2CC2)cc1` [Example 9AO], for which the figures for the IC50 against E. coli LpxC and on P. aeruginosa LpxC were 2500 to 10000 nM and 100 to 1000 nM, respectively. In addition, the MIC in assay [1], in assay [2], in assay [3] and in assay [4] (setting [5]) was > 100 µM each time.
Consider `CC(C)C(=O)N1C[C@H](NC(=O)[C@@H]2CC(F)(F)CN2)C[C@@H]1C(=O)NCc1ccc(C#CC#CC2CC2)cc1` [Example 9G], for which the IC50 (in general, the concentration that gives 50% inhibition) at E. coli LpxC lay in the range of 500 to 2500 nM; against P. aeruginosa LpxC, 50 to 100 nM. Also, the MIC – broadly, the lowest concentration that inhibits growth of the organism – in assay [1] is 20 to 100 µM (≈ 10.2 to 51.1 µg/mL); in assay [2], 20 to 100 µM (≈ 10.2 to 51.1 µg/mL); in assay [3], > 100 µM; in assay [4] (setting [5]), > 100 µM.
Regarding `CC(C)C(=O)N1C[C@H](NC(=O)[C@@H]2CCCN2)C[C@@H]1C(=O)NCc1ccc(C#Cc2ccccc2)cc1` [Example 9J], the results for the IC50 against E. coli LpxC and on P. aeruginosa LpxC were 2500 to 10000 nM and 100 to 1000 nM, respectively. For the same molecule, the MIC in assay [1] was 20 to 100 µM (≈ 9.73 to 48.7 µg/mL); in assay [2], > 100 µM; in assay [3], > 100 µM; in assay [4] (setting [5]) it was > 100 µM.
On to `CC(C)C(=O)N1C[C@H](NC(=O)[C@@H]2C[C@H](F)CN2)C[C@@H]1C(=O)NCc1ccc(C#CC#CC2CC2)cc1` [Example 9B], for which the IC50 was 500 to 2500 nM on E. coli LpxC and < 50 nM against P. aeruginosa LpxC. The minimal inhibitory concentration (MIC) in assay [1] was 20 to 100 µM (≈ 9.85 to 49.3 µg/mL); in assay [2], < 20 µM; in assay [3], > 100 µM; in assay [4] (setting [5]), > 100 µM.
As to `CS(=O)(=O)CCN1C[C@H](NC(=O)[C@@H]2C[C@H](F)CN2)C[C@@H]1C(=O)NCc1ccc(C#CC#CC2CC2)cc1` [Example 9AP], the figures for the IC50 against E. coli LpxC and on P. aeruginosa LpxC were 500 to 2500 nM and 100 to 1000 nM, respectively. In addition, the MIC in assay [1], in assay [2], in assay [3] and in assay [4] (setting [5]) was > 100 µM each time.
Consider `CC(C)C(=O)N1C[C@H](NC(=O)[C@@H]2C[C@@H](F)CN2)C[C@@H]1C(=O)NCc1ccc(C#Cc2ccc(CN3CCOCC3)cc2)cc1` [Example 9H], for which the 50% inhibitory concentration (IC50) at E. coli LpxC was 2500 to 10000 nM; against P. aeruginosa LpxC, 100 to 1000 nM. Further, the MIC in assay [1], in assay [2], in assay [3] and in assay [4] (setting [5]) was > 100 µM each time.
In the case of `CC(C)C(=O)N1C[C@H](NC(=O)[C@@H]2C[C@H](C#N)CN2)C[C@@H]1C(=O)NCc1ccc(C#Cc2ccc(CN3CCOCC3)cc2)cc1` [Example 9AD, (2R,4R)-4-((2S,4S)-4-Cyanopyrrolidine-2-carboxamido)-1-isobutyryl-N-(4-((4-(morpholinomethyl)phenyl)ethynyl)benzyl)pyrrolidine-2-carboxamide], the IC50 against E. coli LpxC is < 500 nM; against P. aeruginosa LpxC, < 50 nM. Further, the MIC in assay [1] was 20 to 100 µM (≈ 12.2 to 61.1 µg/mL); in assay [2] it was < 20 µM; in assay [3], > 100 µM; in assay [4] (wild-type P. aeruginosa PAO1, 37° C. 16-20 h, read-out: P. aeruginosa WT MIC), > 100 µM.
For `CC(C)C(=O)N1C[C@H](NC(=O)[C@@H]2CCCN2)C[C@@H]1C(=O)NCc1ccc(C#Cc2ccc(CN3CCOCC3)cc2)cc1` [Example 9K], the values for the concentration for half-maximal inhibition (IC50) at E. coli LpxC and against P. aeruginosa LpxC were 500 to 2500 nM and 50 to 100 nM, respectively. The MIC in assay [1] was 20 to 100 µM (≈ 11.7 to 58.6 µg/mL); in assay [2], 20 to 100 µM (≈ 11.7 to 58.6 µg/mL); in assay [3], > 100 µM; in assay [4] (setting [5]) it was > 100 µM.
As to `O=C(NC[C@H]1C[C@@H](NC(=O)[C@@H]2C[C@H](F)CN2)CN1C(=O)C1CC1)c1ccc(C#Cc2ccc(CN3CCOCC3)cc2)cc1Cl` [Example 6, (2S,4S)—N-((3R,5R)-5-((2-Chloro-4-((4-(morpholinomethyl)phenyl)ethynyl)benzamido)methyl)-1-(cyclopropanecarbonyl)pyrrolidin-3-yl)-4-fluoropyrrolidine-2-carboxamide], the results for the IC50 against E. coli LpxC and against P. aeruginosa LpxC were < 500 nM and 50 to 100 nM, respectively. Also, the MIC in assay [1] is < 20 µM; in assay [2] it was < 20 µM; in assay [3], < 20 µM; in assay [4] (setting [5]), > 100 µM.
For the molecule `CC(C)C(=O)N1C[C@H](NC(=O)[C@@H]2C[C@H](F)CN2)C[C@@H]1C(=O)NCc1ccc(C#Cc2ccc(CN3CCOCC3)cc2)cc1` [Example 9D], the IC50 at E. coli LpxC was < 500 nM; on P. aeruginosa LpxC, < 50 nM. Also, the minimal inhibitory concentration (MIC) was < 20 µM in assay [1], < 20 µM in assay [2], 20 to 100 µM (≈ 12.1 to 60.4 µg/mL) in assay [3] and > 100 µM in assay [4] (setting [5]).
For the molecule `CC(C)C(=O)N1C[C@H](NC(=O)[C@H]2NCC[C@@H]2O)C[C@@H]1C(=O)NCc1ccc(C#Cc2ccc(CN3CCOCC3)cc2)cc1` [Example 9AA], the IC50 against E. coli LpxC was 500 to 2500 nM; against P. aeruginosa LpxC, < 50 nM. In addition, the MIC in assay [1] is > 100 µM; in assay [2], 20 to 100 µM (≈ 12 to 60.2 µg/mL); in assay [3], > 100 µM; in assay [4] (setting [5]) it was > 100 µM.
